Assay results published in US9238626B2 (priority 2012, dated 2016).
Counter-ions that a name gives are not always drawn. Like-named read-outs stand apart in the source and are kept apart here.

Legend:
[1] = target: Electrophorus electricus (ee) AChE (Electrophorus electricus (Electric eel) (Gymnotus electricus), UniProt O42275); assay: AChE inhibition assay (Ellman), eeAChE; type: biochemical
Procedure: AChE inhibitory activity of compounds (Ia)-(Ie) and (−)-(Ib) and (+)-(Ib) was evaluated spectrophotometrically at 25° C. by the method of Ellman et al., using recombinant human AChE (hAChE) and Electrophorus electricus (ee) AChE and acetylthiocholine iodide as substrate (cf. G. L. Ellman et al., “New and Rapid Colorimetric Determination of Acetylcholinesterase Activity” Biochem. Pharmacol. 1961, vol. 7, pp. 88-95). For eeAChE inhibitory activity determination, the reaction took place in a final volume of 300 μL of 0.1 M phosphate-buffered solution pH 8.0, containing 0.03 unit/mL of ee AChE and 333 μM 5,5′-dithiobis(2-nitrobenzoic) acid (DTNB) solution used to produce the yellow anion of 5-thio-2-nitrobenzoic acid. Inhibition curves were performed in duplicates using at least 10 increasing concentrations of inhibitor and preincubating at 37° C. for 20 min. One duplicate sample without inhibitor was always present to yield 100% of AChE activity. Then, substrate acetylthiocholine (450 μM) was added and the reaction was developed at 37° C. for 5 min. The color production was measured at 414 nm.
Results are expressed as mean±S.E.M. of at least 4 experiments performed in duplicate. DTNB, acetylthiocholine, butyrylthiocholine, and enzymes were purchased from Sigma.

[2] = test system: hippocampal slices incubated with Aβ oligomers; assay: Electrophysiology (LTP) in hippocampal slices incubated with Aβ oligomers; type: cell-based, C57bl6 male mice
Procedure: Hippocampal slices were prepared according to standard procedures previously described. Briefly, transverse slices (350 μm) from the dorsal hippocampus were cut under cold artificial cerebrospinal fluid (ACSF, in mM: 124 NaCl, […], 10 D-glucose, 2.69 KCl, 1.25 KH2PO4 2.5 CaCl2, 1.3 MgSO4, and 2.60 NaHPO4) using a Vibratome (Leica VT 1000 s, Germany) and incubated in ACSF for 1 h at room temperature. In all experiments, 10 μM picrotoxin (PTX) was added to suppress inhibitory GABAA transmission. Slices were transferred to an experimental chamber (2 mL), superfused (3 mL/min, at 20-22° C.) with gassed ACSF and visualized by trans-illumination with a binocular microscope (MSZ-10, Nikon, Melville, N.Y.). To evoke field excitatory postsynaptic potentials (fEPSPs), we stimulate with bipolar concentric electrodes (Platinum/Iridium, 125 μm OD diameter, FHC Inc., Bowdoin, Me.) generated by a stimulator (Axon 700b, Molecular Devices, Sunnyvale, Calif.) and connected to an isolation unit (Isoflex, AMPI, Jerusalem, Israel). The stimulation was in the Stratum Radiatum within 100-200 μm from the recording site. The paired pulse facilitation index was calculated by ((R2−R1)/R1), where R1 and R2 were the peak amplitudes of the first and second fEPSP respectively. To generate LTP we used Theta Burst Stimulation (TBS) consisting of 5 trains of stimulus with an inter-train interval of 20 s. Each train consisted of 10 bursts at 5 Hz and each burst having 4 pulses at 100 Hz. To generate LTD we used Low Frequency Stimulation (LFS) consisting in 900 paired pulses at 1 Hz. […] Evoked postsynaptic responses were analyzed off-line, using an analysis software (pClampfit, Molecular Devices), which allowed visual detection of events, computing only those events that exceeded and arbitrary threshold.
Electrophysiological registers of hippocampal slices of 2-month-old C57bl6 male mice were assessed to evaluate the synaptic transmission through the long-term potentiation (LTP). […] In FIG. 3B, the quantification at min 60 of fEPSP are shown. […]

APP-PS1 mice [3] = assay: Senile plaques in APP-PS1 mice (Thioflavin-S staining); type: in vivo, mouse
APP-PS1 mice [4] = assay: Memory flexibility test (Morris water maze variant) in APP-PS1 mice; type: in vivo, mouse
APP-PS1 mice [5] = assay: Electrophysiology (LTP) in hippocampal slices from treated APP-PS1 mice; type: in vivo, mouse; details: for LTP magnitude at 60 min: compared with untreated brain slices; for LTP generation (in words): slices from treated APP-PS1 mice
[6] = test system: human recombinant AChE-induced Aβ1-40 aggregation; assay: AChE-induced Aβ1-40 aggregation inhibition assay (thioflavin T); details: inhibitor 100 μM
Procedure: Aβ1-40, supplied as trifluoroacetate salt, was purchased from Bachem AG (Germany). Aβ1-40 (2 mg mL^−1) was dissolved in HFIP, lyophilized, and then resolubilized in DMSO to get a 2.3 mM Aβ1-40 solution. 1 mM Solutions of tested inhibitors were prepared by dissolution in MeOH.
Aliquots of 2 μL Aβ1-40 peptide were incubated for 24 h at room temperature in 0.215 M sodium phosphate buffer (pH 8.0) at a final concentration of 230 μM. […] The final volume of each vial was 20 μL. Each assay was run in duplicate. To quantify amyloid fibril formation, the thioflavin T fluorescence method was then applied (cf. H. Naiki et al., “Kinetic Analysis of Amyloid Fibril Polymerization in Vitro”, Lab. Invest. 1991, vol. 65, pp. 104-110). The fluorescence intensities due to β-sheet conformation were monitored for 300 s at λem=490 nm (λexc=446 nm). The percent inhibition of the AChE-induced aggregation due to the presence of the tested compound was calculated by the following expression: 100−(IFi/IFo×100) where IFi and IFe are the fluorescence intensities obtained for Aβ plus AChE in the presence and in the absence of inhibitor, respectively, minus the fluorescence intensities due to the respective blanks.

β-Secretase (BACE-1) = β-Secretase (BACE-1) (Homo sapiens (Human), UniProt P56817); assay: β-Secretase (BACE-1) inhibition assay; type: biochemical; details: read-out: BACE-1 IC50
Chain of β-Secretase (BACE-1) (P56817 46-501): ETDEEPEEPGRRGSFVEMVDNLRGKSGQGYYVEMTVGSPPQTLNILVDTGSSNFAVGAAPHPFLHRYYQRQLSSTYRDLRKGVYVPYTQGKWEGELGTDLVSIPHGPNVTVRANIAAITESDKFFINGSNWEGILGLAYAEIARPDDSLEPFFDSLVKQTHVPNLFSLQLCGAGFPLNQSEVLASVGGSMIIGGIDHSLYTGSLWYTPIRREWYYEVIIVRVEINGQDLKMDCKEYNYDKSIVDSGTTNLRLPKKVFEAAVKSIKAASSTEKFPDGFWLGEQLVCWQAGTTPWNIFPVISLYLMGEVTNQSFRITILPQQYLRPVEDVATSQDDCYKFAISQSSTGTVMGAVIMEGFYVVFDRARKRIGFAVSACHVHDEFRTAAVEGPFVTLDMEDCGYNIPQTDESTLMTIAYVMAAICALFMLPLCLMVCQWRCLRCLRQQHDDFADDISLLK
Procedure: β-Secretase (BACE-1, Sigma) inhibition studies were performed by employing a peptide mimicking APP sequence as substrate (methoxycoumarin-[…]dinitrophenyl, M-2420, Bachem). The following procedure was employed: 5 μL of test compound (or DMSO, if preparing a control well) were pre-incubated with 175 μL of the enzyme (in 20 mM sodium acetate containing CHAPS 0.1% w/v) for 1 h at room temperature. The substrate (3 μM, final concentration) was then added and left to react for 15 min. The fluorescence signal was read at λem=405 nm (λexc=320 nm). […] The fluorescence intensities with and without inhibitor were compared and the percent inhibition due to the presence of test compounds was calculated. The background signal was measured in control wells containing all the reagents, except BACE-1 and subtracted. […] Inhibition curves were obtained by plotting the % inhibition versus the logarithm of inhibitor concentration in the assay sample. The linear regression parameters were determined and the IC50 extrapolated (GraphPad Prism 4.0, GraphPad Software Inc.).

APP-PS1 mice [7] = assay: Total load of brain amyloid deposits in APP-PS1 mice (Aβ 6E10 immunodetection); type: in vivo, mouse
[8] = slices with Aβ oligomers, FIG. 3A
[9] = 7-month-old APP-PS1 mice, FIG. 8
[10] = 11-month-old APP-PS1 mice, FIG. 8B
[11] = 7-month-old APP-PS1 mice, FIG. 7A
[12] = 11-month-old APP-PS1 mice, FIG. 7B

Chain of Electrophorus electricus (ee) AChE (O42275 whole entry, looked up): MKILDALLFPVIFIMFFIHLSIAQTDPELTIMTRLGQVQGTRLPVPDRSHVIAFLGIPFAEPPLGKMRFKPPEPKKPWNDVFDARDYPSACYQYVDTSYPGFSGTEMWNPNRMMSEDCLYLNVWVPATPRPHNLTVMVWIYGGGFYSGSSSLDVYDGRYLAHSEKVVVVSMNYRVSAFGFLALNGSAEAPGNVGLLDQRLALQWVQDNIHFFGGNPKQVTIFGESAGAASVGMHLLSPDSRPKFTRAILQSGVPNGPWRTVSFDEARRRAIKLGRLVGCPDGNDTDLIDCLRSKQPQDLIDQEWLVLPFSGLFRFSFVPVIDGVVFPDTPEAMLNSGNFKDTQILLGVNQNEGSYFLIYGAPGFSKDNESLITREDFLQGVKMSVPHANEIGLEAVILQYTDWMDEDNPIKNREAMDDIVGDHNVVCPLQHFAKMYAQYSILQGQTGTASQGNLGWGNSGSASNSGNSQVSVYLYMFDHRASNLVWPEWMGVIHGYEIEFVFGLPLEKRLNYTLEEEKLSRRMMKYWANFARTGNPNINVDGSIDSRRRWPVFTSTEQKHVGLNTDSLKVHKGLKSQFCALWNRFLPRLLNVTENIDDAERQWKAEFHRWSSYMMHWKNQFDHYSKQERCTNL

Row | SMILES | IC50 [1] | fEPSP magnitude response at min 60 ([2]; compared to slices treated with Aβ oligomers, FIG. 3B) | LTP induction [2, 8] | Th-S amyloid aggregates, hippocampal region (APP-PS1 mice [3]; [9]) | Th-S positive area, cortex (APP-PS1 mice [3]; [9]) | Th-S amyloid deposits, cortex (APP-PS1 mice [3]; [10]) | Th-S amyloid deposits, hippocampus (APP-PS1 mice [3]; [10]) | number of trials to reach criteria (APP-PS1 mice [4]; 7-month-old APP-PS1 mice, i.p. three times per week for 4 weeks, untreated about 12-13 trials) | cognitive behavior in memory flexibility test (in words) (APP-PS1 mice [4]; 11-month-old APP-PS1 mice) | LTP magnitude at 60 min (APP-PS1 mice [5]) | LTP generation (in words) (APP-PS1 mice [5]) | AChE-induced Aβ1-40 aggregation (%) [6] | IC50 (β-Secretase (BACE-1)) | IC50 (β-Secretase (BACE-1); stated in text) | Aβ load, hippocampus (APP-PS1 mice [7]; [11]) | Aβ-positive aggregate area, brain cortex (APP-PS1 mice [7]; [11]) | total Aβ load, cortex (APP-PS1 mice [7]; [12]) | total Aβ load, hippocampus (APP-PS1 mice [7]; [12]) | LTP induction (in words) [2, 8] | cognitive behavior in memory flexibility test (in words) (APP-PS1 mice [4]; 7-month-old APP-PS1 mice)
1 | CC1=C[C@H]2Cc3nc4cc(Cl)ccc4c(NCCCCCCCCCNC(=O)c4cc(O)c5c(c4)C(=O)c4cccc(O)c4C5=O)c3[C@@H](C1)C2 [(+)-(Ib)•HCl, (+)-(7R,11R)—N-{9-[(3-chloro-6,7,10,11-tetrahydro-9-methyl-7,11-methanocycloocta[b]quinolin-12-yl)amino]nonyl}-9,10-dihydro-4,5-dihydroxy-9,10-dioxoanthracene-2-carboxamide] | 98.9 ± 14.2 nM | 200% | 200% | reduction in the amyloid aggregates | significant reduction in the Th-S positive area | reduction in amyloid deposits | reduction in amyloid deposits | 7 trials | took less trials to reach learning criteria | 150% | able to generate LTP | 36.9 ± 3.4% | 80 ± 10 nM | 80 nM | diminished the load levels of Aβ oligomers | significant reduction | reduction in total Aβ load | reduction in total load of Aβ | – | –
2 | CC1=C[C@@H]2Cc3nc4cc(Cl)ccc4c(NCCCCCCCCCNC(=O)c4cc(O)c5c(c4)C(=O)c4cccc(O)c4C5=O)c3[C@H](C1)C2 [(−)-(Ib)•HCl, (−)-(7S,11S)—N-{9-[(3-chloro-6,7,10,11-tetrahydro-9-methyl-7,11-methanocycloocta[b]quinolin-12-yl)amino]nonyl}-9,10-dihydro-4,5-dihydroxy-9,10-dioxoanthracene-2-carboxamide] | 9.4 ± 1.6 nM | – | – | – | significant reduction in the Th-S positive area | – | – | – | no significant change | 150% | able to generate LTP | 38.1 ± 0.7% | 80 ± 10 nM | 80 nM | – | significant reduction | reduction in total Aβ load | – | no LTP induction | improved behavior within days
